Measurements reported in patent US20080089884A1, “Compositions and methods for the modulation of detrusor activity” (priority 2006, published 2008).

Key:
[1] = tested on: primary rat detrusor muscle cultures; format: cell-based; conditions: 1 μg/ml, bladder smooth muscle cells, data not shown
Method: Tissue culture. Primary bladder muscle cultures were derived from newborn Sprague-Daley rats (Charles River; Wilmington, Mass.). The bladders were harvested, minced and added to 3 ml dissociation solution containing 0.5 mg/ml collagenase, 0.5 mg/ml elastase, 2 μg/ml DNAse (Worthington, Lakewood, N.J.) and 1 mg/ml soybean trypsin inhibitor (Gibco, Carlsbad, Calif.). The tissue was triturated at 15 minute intervals for 45 minutes using fire polished pasteur pipets. The cell solution was filtered through a 40 μm cell strainer and spun at 1000 rpm for 5 minutes. […] The cell number was determined and cells were plated at a density of 25,000 cells/cm2 in poly-L-lysine coated (P-6282, Sigma) 12-well plates (#3513, Corning, Corning, N.Y.) for biochemical and flow cytometry studies and on plastic 8-well chamber slides (#354108, BD Bioscience, San Jose, Calif.) for immunohistochemistry or TUNEL staining. […]
Apoptosis detection. […] Following treatment with rMIF, cells were analyzed using a kit (PF032, Calbiochem, San. Diego, Calif.) to separate apoptotic and necrotic cells on flow cytometry. […] Cells were analyzed using a Becton Dickenson FACS caliber flow cytometer with collection and analysis of data performed using Becton Dickinson CELLQuest software. TUNEL staining was detected using a kit (Roche) with DAB microscopy of cells grown 5-7 days in 8-well chamber slides. […]

[2] = tested on: incontinence due to detrusor over activity with DHIC; conditions: cited from earlier work
[3] = tested on: bladder function, men with BPH; conditions: cited from earlier work
urinary retention = conditions: randomized placebo controlled trials; cited from earlier work
[4] = tested on: MIF protein release from rat bladder muscle culture cells; experiment: MIF ELISA of supernatants from rat bladder muscle cultures; format: cell-based; conditions: TNF-α 50 ng/ml for 24 hours, 3 separate cultures
Method: Tissue culture. Primary bladder muscle cultures were derived from newborn Sprague-Daley rats (Charles River; Wilmington, Mass.). The bladders were harvested, minced and added to 3 ml dissociation solution containing 0.5 mg/ml collagenase, 0.5 mg/ml elastase, 2 μg/ml DNAse (Worthington, Lakewood, N.J.) and 1 mg/ml soybean trypsin inhibitor (Gibco, Carlsbad, Calif.). The tissue was triturated at 15 minute intervals for 45 minutes using fire polished pasteur pipets. The cell solution was filtered through a 40 μm cell strainer and spun at 1000 rpm for 5 minutes. The supernatant was aspirated and cells resuspended in DMEM-F/12 medium containing 1% FBS, 1% N-2 supplement and 1% Penicillin/Streptomycin (Gibco). The cell number was determined and cells were plated at a density of 25,000 cells/cm2 in poly-L-lysine coated (P-6282, Sigma) 12-well plates (#3513, Corning, Corning, N.Y.) for biochemical and flow cytometry studies and on plastic 8-well chamber slides (#354108, BD Bioscience, San Jose, Calif.) for immunohistochemistry or TUNEL staining. Cells were maintained at 37° C. and 5% CO2 in a humidified chamber. The presence of 1% FBS was required for the success of initial plating. […]
MIF ELISA. […] MIF concentrations were calculated by extrapolation from a quadratic standard curve using human rMIF (range: 0-12 ng/ml, sensitivity: 150 pg/ml).

[5] = tested on: post-void residual in ambulatory older women; conditions: estrogen users, 204 ambulatory women, mean age 79 years; cited from earlier work

## C[C@@H]1C[C@@H]([C@H](O)CC2CC(=O)NC(=O)C2)C(=O)[C@@H](C)C1 [cyclohexamide]
[1]
  apoptosis or necrosis induced by cyclohexamide alone: does not induce apoptosis or necrosis

## CCN(CC)CC#CCOC(=O)C(O)(c1ccccc1)C1CCCCC1 (stereo not drawn) [oxybutynin]
[2]; intention-to-treat, 64 subjects on immediate-release oxybutynin started at 2.5 mg and titrated
  decrease in daily incontinence frequency: 68%
[2]; on oxybutynin, 9/19 subjects
  evaluable subjects with no end-study leakage, impaired contractility: 47%
[2]; on oxybutynin, 25/35 subjects
  evaluable subjects with no end-study leakage, normal contractility: 71%
[2]; subjects randomized to oxybutynin
  subjects with no incontinence episodes on the end-study bladder diary: 34/64

## CC(C)[N+](C)(CCOC(=O)C1c2ccccc2Oc2ccccc21)C(C)C [propantheline]
[3]
  acute urinary retention: 5/6

## CC(C[N+](C)(C)C)OC(N)=O (stereo not drawn) [Bethanechol chloride]
Urinary retention
  clinically-relevant outcomes: does not improve clinically-relevant outcomes

## TNF-α
[4]
  increase in MIF protein levels detectable in the supernatant: approximately 30%

## estrogen
[5]
  mean PVR: 39.3 mL
